Two compounds from ChEMBL document CHEMBL3286214, “Tyrosinase inhibitory activity of a glucosylated hydroxystilbene in mouse melan-a melanocytes” (J Nat Prod, 2014) can be followed below.

Experiment [1] addresses T1, Tyrosinase (Mus musculus, UniProt P11344).
T1 sequence (P11344 whole entry): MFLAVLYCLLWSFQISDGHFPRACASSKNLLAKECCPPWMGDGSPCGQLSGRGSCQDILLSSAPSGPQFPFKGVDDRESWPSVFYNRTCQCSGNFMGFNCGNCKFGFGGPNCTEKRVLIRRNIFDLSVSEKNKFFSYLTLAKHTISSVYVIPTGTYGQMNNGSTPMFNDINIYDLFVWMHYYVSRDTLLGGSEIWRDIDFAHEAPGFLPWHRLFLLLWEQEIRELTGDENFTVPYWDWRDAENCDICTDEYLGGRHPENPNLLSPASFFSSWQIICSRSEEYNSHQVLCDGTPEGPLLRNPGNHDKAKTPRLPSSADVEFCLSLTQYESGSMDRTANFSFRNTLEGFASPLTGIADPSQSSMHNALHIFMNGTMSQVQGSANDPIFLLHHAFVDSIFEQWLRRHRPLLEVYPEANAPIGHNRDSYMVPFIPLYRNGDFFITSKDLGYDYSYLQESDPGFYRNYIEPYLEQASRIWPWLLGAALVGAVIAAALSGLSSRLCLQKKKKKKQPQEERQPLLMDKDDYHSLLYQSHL
Description: Inhibition of tyrosinase in mouse Melan-a cells assessed as decrease in L-DOPA Vmax at 120 uM by Lineweaver-Burk plot. The format is cell-based.

The target in experiment [2] is T2, Tyrosinase (Mus musculus) (UniProt P11344).
T2 sequence (whole entry): T1 sequence (P11344 whole entry)
Description: Inhibition of tyrosinase in mouse Melan-a cells assessed as decrease in L-DOPA Vmax by Lineweaver-Burk plot. It counts as cell-based.

In experiment [3] the target is T1, Tyrosinase. Description: Inhibition of tyrosinase in mouse Melan-a cells assessed as decrease in L-DOPA Vmax at 240 uM by Lineweaver-Burk plot. It counts as cell-based.
Experiment [4] concerns the target T2, Tyrosinase (Mus musculus). Nature of the experiment: Inhibition of tyrosinase in mouse Melan-a cells after 3 days by L-DOPA oxidation assay in presence of 20 nM TPA melanogenesis inducer. It counts as cell-based.
Experiment [5] addresses T2, Tyrosinase (Mus musculus). Nature of the experiment: Inhibition of tyrosinase in mouse Melan-a cells after 3 days by L-DOPA oxidation assay in presence of 1 uM forskolin melanogenesis inducer. The format is cell-based.
In experiment [6] the target is T2, Tyrosinase (Mus musculus). Description: Inhibition of tyrosinase in mouse Melan-a at 60 uM after 3 days by L-DOPA oxidation assay in presence of 1 uM forskolin melanogenesis inducer (reference value: 162%). On the set-up: scale not given: the % may be the effect or the level left.
The test system of experiment [7] is Melan-a. Description: Effect on tyrosinase localization in mouse Melan-a cells assessed as endoplasmic reticulum trapping at 60 uM incubated for 3 days by confocal immunofluorescence microscopy. It counts as functional, cell-based.
Experiment [8] relates to Melan-a. Nature of the experiment: Effect on tyrosinase localization in mouse Melan-a cells assessed as lysosome at 60 uM incubated for 3 days by confocal immunofluorescence microscopy. It counts as functional, cell-based.
Experiment [9] relates to Melan-a. Nature of the experiment: Effect on tyrosinase maturation in mouse Melan-a cells assessed as immature Endo H-sensitive form measured in endoplasmic reticulum using forskolin-supplemented medium at 60 to 120 uM by Western blotting analysis. The format is functional, cell-based.
The nature of experiment [10]: Suppression of MITF expression in mouse Melan-a cells using forskolin-supplemented medium incubated for 1 day by Western blotting analysis. The format is functional, cell-based. (Immunoblotting shows a protein as a band on a membrane.)
The nature of experiment [11]: Suppression of TRP1 expression in mouse Melan-a cells using forskolin-supplemented medium at 60 to 120 uM incubated for 1 day by Western blotting analysis. The format is functional, cell-based.
Experiment [12] has as its system Melan-a. Nature of the experiment: Suppression of tyrosinase/TRP-1 complex formation in mouse Melan-a cells using forskolin-supplemented medium at 120 uM incubated for 3 days by Western blotting analysis. It counts as functional, cell-based.

Active and inactive are the calls of the source. The calls are words filed in the database; no cut-off is given here.

What is called Ki is the equilibrium dissociation constant of an inhibitor or competing ligand from its target. Turning to `Oc1ccc(/C=C/c2cc(O)cc(O)c2)cc1` [RESVERATROL], on Tyrosinase [1], the inhibitory constant (Ki) came out at 2.9 mM.

`OC[C@H]1O[C@@H](Oc2c(O)cc(O)cc2/C=C/c2ccc(O)cc2)[C@H](O)[C@@H](O)[C@@H]1O`: the inhibition result in [2], in experiment [4], in experiment [5] and in experiment [10] was “Dose-dependent effect” each time. Besides, the values for the Ki on Tyrosinase [1] and on Tyrosinase [3] were 2.8 mM and 2.5 mM, respectively. Besides, the Activity in experiment [6] was found to be 103%. Also, the outcome with Melan-a [7], with Melan-a [8] and in the experiment with Melan-a [9] was inactive. For the same compound, the inhibition result in experiment [11] was “inactive”. Besides, in the experiment on Melan-a [12], the inhibition result is “Active”.
